{"source": "the supplement of paper PMC10307832", "test_in_all_cases": "relative viability (nuclei count vs DMSO), 5 days (fraction); higher = more cells survive", "key": {"NCI-H2087": {"system": "NCI-H2087", "method_in_brief": "(§1)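 Relative viability is defined as nuclei in treated wells over nuclei in vehicle wells. Duplicate plates were run and medians reported. Lung cancer cell lines in 1536-well plates were dosed by pin tool one day after seeding, with one drug or with a fixed anchor-drug dose plus five library-drug doses (not always all listed) in √10 steps, and nuclei were counted after 5 days.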"}, "LOU-NH91": {"system": "LOU-NH91", "method_in_brief": "as §1"}, "NCI-H727": {"system": "NCI-H727", "method_in_brief": "as §1"}, "LCLC-97TM1": {"system": "LCLC-97TM1", "method_in_brief": "as §1"}, "NCI-H1650": {"system": "NCI-H1650", "method_in_brief": "as §1"}, "EKVX": {"system": "EKVX", "method_in_brief": "as §1"}, "NCI-H1792": {"system": "NCI-H1792", "method_in_brief": "as §1"}, "LK-2": {"system": "LK-2", "method_in_brief": "as §1"}, "NCI-H1563": {"system": "NCI-H1563", "method_in_brief": "as §1"}, "HCC-827": {"system": "HCC-827", "method_in_brief": "as §1"}, "LU99A": {"system": "LU99A", "method_in_brief": "as §1"}, "HCC-78": {"system": "HCC-78", "method_in_brief": "as §1"}, "EPLC-272H": {"system": "EPLC-272H", "method_in_brief": "as §1"}, "BEN": {"system": "BEN", "method_in_brief": "as §1"}, "NCI-H358": {"system": "NCI-H358", "method_in_brief": "as §1"}, "SW 1573": {"system": "SW 1573", "method_in_brief": "as §1"}, "EMC-BAC-2": {"system": "EMC-BAC-2", "method_in_brief": "as §1"}, "NCI-H2126": {"system": "NCI-H2126", "method_in_brief": "as §1"}, "COR-L 105": {"system": "COR-L 105", "method_in_brief": "as §1"}, "SK-MES-1": {"system": "SK-MES-1", "method_in_brief": "as §1"}}, "data": [{"smiles": "COCC1(CO)C(=O)C2CCN1CC2", "note": "(stereo unspecified) [PRIMA-1MET] + CS(=O)(=O)N1CCN(Cc2cc3nc(-c4cccc5[nH]ncc45)nc(N4CCOCC4)c3s2)CC1 [Pictilisib] (partner 1 µM)", "values": [{"measurement": "relative viability", "setting": "NCI-H2087; first compound 0.2 µM", "result": 0.413}, {"measurement": "relative viability", "setting": "NCI-H2087; first compound 0.6325 µM", "result": 0.848}, {"measurement": "relative viability", "setting": "NCI-H2087; first compound 2 µM", "result": 0.966}, {"measurement": "relative viability", "setting": "NCI-H2087; first compound 6.325 µM", "result": 0.642}, {"measurement": "relative viability", "setting": "NCI-H2087; first compound 20 µM", "result": 0.659}, {"measurement": "relative viability", "setting": "LOU-NH91; first compound 0.2 µM", "result": 0.573}, {"measurement": "relative viability", "setting": "LOU-NH91; first compound 0.6325 µM", "result": 0.474}, {"measurement": "relative viability", "setting": "LOU-NH91; first compound 2 µM", "result": 0.458}, {"measurement": "relative viability", "setting": "LOU-NH91; first compound 6.325 µM", "result": 0.467}, {"measurement": "relative viability", "setting": "LOU-NH91; first compound 20 µM", "result": 0.366}, {"measurement": "relative viability", "setting": "NCI-H727; first compound 0.2 µM", "result": 0.258}, {"measurement": "relative viability", "setting": "NCI-H727; first compound 0.6325 µM", "result": 0.341}, {"measurement": "relative viability", "setting": "NCI-H727; first compound 2 µM", "result": 0.241}, {"measurement": "relative viability", "setting": "NCI-H727; first compound 6.325 µM", "result": 0.178}, {"measurement": "relative viability", "setting": "NCI-H727; first compound 20 µM", "result": 0.109}, {"measurement": "relative viability", "setting": "LCLC-97TM1; first compound 0.2 µM", "result": 0.127}, {"measurement": "relative viability", "setting": "LCLC-97TM1; first compound 2 µM", "result": 0.234}, {"measurement": "relative viability", "setting": "LCLC-97TM1; first compound 6.325 µM", "result": 0.135}, {"measurement": "relative viability", "setting": "LCLC-97TM1; first compound 20 µM", "result": 0.117}, {"measurement": "relative viability", "setting": "NCI-H1650; first compound 0.2 µM", "result": 0.618}, {"measurement": "relative viability", "setting": "NCI-H1650; first compound 0.6325 µM", "result": 0.483}, {"measurement": "relative viability", "setting": "NCI-H1650; first compound 2 µM", "result": 0.311}, {"measurement": "relative viability", "setting": "NCI-H1650; first compound 6.325 µM", "result": 0.527}, {"measurement": "relative viability", "setting": "NCI-H1650; first compound 20 µM", "result": 0.209}, {"measurement": "relative viability", "setting": "EKVX; first compound 0.2 µM", "result": 0.475}, {"measurement": "relative viability", "setting": "EKVX; first compound 0.6325 µM", "result": 0.458}, {"measurement": "relative viability", "setting": "EKVX; first compound 2 µM", "result": 0.328}, {"measurement": "relative viability", "setting": "EKVX; first compound 6.325 µM", "result": 0.489}, {"measurement": "relative viability", "setting": "EKVX; first compound 20 µM", "result": 0.356}, {"measurement": "relative viability", "setting": "NCI-H1792; first compound 0.2 µM", "result": 0.227}, {"measurement": "relative viability", "setting": "NCI-H1792; first compound 0.6325 µM", "result": 0.223}, {"measurement": "relative viability", "setting": "NCI-H1792; first compound 2 µM", "result": 0.222}, {"measurement": "relative viability", "setting": "NCI-H1792; first compound 6.325 µM", "result": 0.327}, {"measurement": "relative viability", "setting": "NCI-H1792; first compound 20 µM", "result": 0.271}, {"measurement": "relative viability", "setting": "LK-2; first compound 0.2 µM", "result": 0.652}, {"measurement": "relative viability", "setting": "LK-2; first compound 0.6325 µM", "result": 0.57}, {"measurement": "relative viability", "setting": "LK-2; first compound 2 µM", "result": 0.359}, {"measurement": "relative viability", "setting": "LK-2; first compound 6.325 µM", "result": 0.364}, {"measurement": "relative viability", "setting": "LK-2; first compound 20 µM", "result": 0.16}, {"measurement": "relative viability", "setting": "NCI-H1563; first compound 0.2 µM", "result": 0.645}, {"measurement": "relative viability", "setting": "NCI-H1563; first compound 0.6325 µM", "result": 0.696}, {"measurement": "relative viability", "setting": "NCI-H1563; first compound 2 µM", "result": 0.632}, {"measurement": "relative viability", "setting": "NCI-H1563; first compound 6.325 µM", "result": 0.629}, {"measurement": "relative viability", "setting": "NCI-H1563; first compound 20 µM", "result": 0.345}, {"measurement": "relative viability", "setting": "HCC-827; first compound 0.2 µM", "result": 1.33}, {"measurement": "relative viability", "setting": "HCC-827; first compound 0.6325 µM", "result": 0.907}, {"measurement": "relative viability", "setting": "HCC-827; first compound 2 µM", "result": 0.863}, {"measurement": "relative viability", "setting": "HCC-827; first compound 6.325 µM", "result": 1.08}, {"measurement": "relative viability", "setting": "HCC-827; first compound 20 µM", "result": 0.81}, {"measurement": "relative viability", "setting": "LU99A; first compound 0.2 µM", "result": 0.414}, {"measurement": "relative viability", "setting": "LU99A; first compound 0.6325 µM", "result": 0.323}, {"measurement": "relative viability", "setting": "LU99A; first compound 2 µM", "result": 0.386}, {"measurement": "relative viability", "setting": "LU99A; first compound 6.325 µM", "result": 0.308}, {"measurement": "relative viability", "setting": "LU99A; first compound 20 µM", "result": 0.154}, {"measurement": "relative viability", "setting": "HCC-78; first compound 0.2 µM", "result": 0.226}, {"measurement": "relative viability", "setting": "HCC-78; first compound 0.6325 µM", "result": 0.222}, {"measurement": "relative viability", "setting": "HCC-78; first compound 6.325 µM", "result": 0.138}, {"measurement": "relative viability", "setting": "HCC-78; first compound 20 µM", "result": 0.0597}, {"measurement": "relative viability", "setting": "EPLC-272H; first compound 0.2 µM", "result": 0.295}, {"measurement": "relative viability", "setting": "EPLC-272H; first compound 0.6325 µM", "result": 0.251}, {"measurement": "relative viability", "setting": "EPLC-272H; first compound 2 µM", "result": 0.234}, {"measurement": "relative viability", "setting": "EPLC-272H; first compound 6.325 µM", "result": 0.305}, {"measurement": "relative viability", "setting": "EPLC-272H; first compound 20 µM", "result": 0.124}, {"measurement": "relative viability", "setting": "BEN; first compound 0.2 µM", "result": 0.608}, {"measurement": "relative viability", "setting": "BEN; first compound 0.6325 µM", "result": 0.514}, {"measurement": "relative viability", "setting": "BEN; first compound 6.325 µM", "result": 0.521}, {"measurement": "relative viability", "setting": "BEN; first compound 20 µM", "result": 0.464}, {"measurement": "relative viability", "setting": "NCI-H358; first compound 0.2 µM", "result": 0.392}, {"measurement": "relative viability", "setting": "NCI-H358; first compound 0.6325 µM", "result": 0.318}, {"measurement": "relative viability", "setting": "NCI-H358; first compound 6.325 µM", "result": 0.319}, {"measurement": "relative viability", "setting": "NCI-H358; first compound 20 µM", "result": 0.0332}, {"measurement": "relative viability", "setting": "SW 1573; first compound 0.2 µM", "result": 0.463}, {"measurement": "relative viability", "setting": "SW 1573; first compound 0.6325 µM", "result": 0.409}, {"measurement": "relative viability", "setting": "SW 1573; first compound 2 µM", "result": 0.45}, {"measurement": "relative viability", "setting": "SW 1573; first compound 6.325 µM", "result": 0.0446}, {"measurement": "relative viability", "setting": "SW 1573; first compound 20 µM", "result": 0.0283}, {"measurement": "relative viability", "setting": "EMC-BAC-2; first compound 0.2 µM", "result": 0.608}, {"measurement": "relative viability", "setting": "EMC-BAC-2; first compound 0.6325 µM", "result": 0.503}, {"measurement": "relative viability", "setting": "EMC-BAC-2; first compound 2 µM", "result": 0.343}, {"measurement": "relative viability", "setting": "EMC-BAC-2; first compound 6.325 µM", "result": 0.566}, {"measurement": "relative viability", "setting": "EMC-BAC-2; first compound 20 µM", "result": 0.583}, {"measurement": "relative viability", "setting": "NCI-H2126; first compound 0.2 µM", "result": 0.459}, {"measurement": "relative viability", "setting": "NCI-H2126; first compound 0.6325 µM", "result": 0.485}, {"measurement": "relative viability", "setting": "NCI-H2126; first compound 2 µM", "result": 0.418}, {"measurement": "relative viability", "setting": "NCI-H2126; first compound 6.325 µM", "result": 0.548}, {"measurement": "relative viability", "setting": "NCI-H2126; first compound 20 µM", "result": 0.488}, {"measurement": "relative viability", "setting": "COR-L 105; first compound 0.2 µM", "result": 0.387}, {"measurement": "relative viability", "setting": "COR-L 105; first compound 0.6325 µM", "result": 0.346}, {"measurement": "relative viability", "setting": "COR-L 105; first compound 2 µM", "result": 0.324}, {"measurement": "relative viability", "setting": "COR-L 105; first compound 6.325 µM", "result": 0.245}, {"measurement": "relative viability", "setting": "COR-L 105; first compound 20 µM", "result": 0.2}, {"measurement": "relative viability", "setting": "SK-MES-1; first compound 0.2 µM", "result": 0.449}, {"measurement": "relative viability", "setting": "SK-MES-1; first compound 0.6325 µM", "result": 0.384}, {"measurement": "relative viability", "setting": "SK-MES-1; first compound 2 µM", "result": 0.359}, {"measurement": "relative viability", "setting": "SK-MES-1; first compound 6.325 µM", "result": 0.381}, {"measurement": "relative viability", "setting": "SK-MES-1; first compound 20 µM", "result": 0.349}]}]}
